In ChEMBL document CHEMBL3734717, “New INH-pyrazole analogs: Design, synthesis and evaluation of antitubercular and antibacterial activity” (Bioorg Med Chem Lett, 2015):
Values after ≈ are worked out from the molar mass of the structure shown. Active and inactive are the calls of the source. The calls are words filed in the database; no cut-off is given here.

Legend:
[1] = tested on: Pseudomonas aeruginosa; experiment: Antibacterial activity against Pseudomonas aeruginosa assessed as zone of inhibition at 50 ug/ml incubated for 18-24 hrs at 37 degC by disc diffusion method; format: functional; conditions: for zone of inhibition at 50 µg/mL: read-out: IZ
[2] = tested on: Escherichia coli; experiment: Antibacterial activity against Escherichia coli assessed as zone of inhibition at 75 ug/ml incubated for 18-24 hrs at 37 degC by disc diffusion method; format: functional; conditions: for zone of inhibition at 75 µg/mL: read-out: IZ
[3] = tested on: Pseudomonas aeruginosa; experiment: Antibacterial activity against Pseudomonas aeruginosa assessed as zone of inhibition at 75 ug/ml incubated for 18-24 hrs at 37 degC by disc diffusion method; format: functional; conditions: for zone of inhibition at 75 µg/mL: read-out: IZ
[4] = tested on: Staphylococcus aureus; experiment: Antibacterial activity against Staphylococcus aureus assessed as zone of inhibition at 75 ug/ml incubated for 18-24 hrs at 37 degC by disc diffusion method; format: functional; conditions: read-out: IZ
[5] = tested on: Staphylococcus aureus; experiment: Antibacterial activity against Staphylococcus aureus assessed as zone of inhibition at 50 ug/ml incubated for 18-24 hrs at 37 degC by disc diffusion method; format: functional; conditions: read-out: IZ
[6] = tested on: Mycobacterium tuberculosis; experiment: Antitubercular activity against Mycobacterium tuberculosis H37Rv assessed as inhibition of cell growth after 5 days by microplate alamar blue assay; format: functional; conditions: 120 h
[7] = tested on: Escherichia coli; experiment: Antibacterial activity against Escherichia coli assessed as zone of inhibition at 50 ug/ml incubated for 18-24 hrs at 37 degC by disc diffusion method; format: functional; conditions: for zone of inhibition at 50 µg/mL: read-out: IZ
[8] = Selectivity index, ratio of IC50 for African green monkey Vero cells to MIC for Mycobacterium tuberculosis H37Rv; format: toxicity, cell-based; conditions: read-out: Selectivity Index
[9] = tested on: Vero; experiment: Cytotoxicity against African green monkey Vero cells assessed as growth inhibition after 3 days by MTT assay; format: cell-based; conditions: Chlorocebus sabaeus, 72 h
[10] = Cytotoxicity against African green monkey Vero cells assessed as growth inhibition at 62.5 ug/ml after 3 days by MTT assay; format: cell-based; conditions: chlorocebus sabaeus, read-out: GI

Compound	zone of inhibition at 50 µg/mL [1]	zone of inhibition at 75 µg/mL [2]	zone of inhibition at 75 µg/mL [3]	zone of inhibition at 75 µg/mL [4]	zone of inhibition at 50 µg/mL [5]	MIC [6]	zone of inhibition at 50 µg/mL [7]	selectivity ratio [8]	IC50 [9]	inhibition at 72 h, 62.5 ug/ml [10]	inhibition zone (IZ) [1]	inhibition zone (IZ) [2]	inhibition zone (IZ) [3]	inhibition zone (IZ) [7]
O=C(c1ccncc1)N(/N=C/c1c[nH]nc1-c1cccc(Cl)c1)C(=O)c1ccc(CCl)cc1	18 mm	16 mm	20 mm	17 mm	14 mm	52.3 µM (≈ 25 µg/mL)	14 mm	–	–	–	–	–	–	–
Cc1ccc(C(=O)N(/N=C/c2c[nH]nc2-c2ccc(Cl)cc2)C(=O)c2ccncc2)cc1	11 mm	14 mm	15 mm	20 mm	17 mm	113 µM (≈ 50 µg/mL)	12 mm	–	–	–	–	–	–	–
O=C(c1ccncc1)N(/N=C/c1c[nH]nc1-c1cccc(Cl)c1)C(=O)c1ccc([N+](=O)[O-])cc1	11 mm	15 mm	14 mm	17 mm	14 mm	26.3 µM (≈ 12.5 µg/mL)	13 mm	–	–	–	–	–	–	–
NNC(=O)c1ccncc1 [ISONIAZID]	–	–	–	–	–	0.7 µM (≈ 0.096 µg/mL)	–	–	–	–	–	–	–	–
O=C(c1ccncc1)N(/N=C/c1c[nH]nc1-c1cccc(Cl)c1)C(=O)c1ccc(Cl)cc1	19 mm	25 mm	21 mm	23 mm	18 mm	3.4 µM (≈ 1.58 µg/mL)	21 mm	> 625	> 1000 µg/mL	10.5%	–	–	–	–
CC[C@@H](CO)NCCN[C@@H](CC)CO [ETHAMBUTOL]	–	–	–	–	–	15.3 µM (≈ 3.13 µg/mL)	–	–	–	–	–	–	–	–
O=C(c1ccncc1)N(/N=C/c1c[nH]nc1-c1ccc(Cl)cc1)C(=O)c1ccc([N+](=O)[O-])cc1	15 mm	20 mm	17 mm	19 mm	17 mm	26.3 µM (≈ 12.5 µg/mL)	18 mm	–	–	–	–	–	–	–
O=C(N/N=C/c1c[nH]nc1-c1cccc(Cl)c1)c1ccncc1	15 mm	24 mm	19 mm	23 mm	18 mm	4.9 µM (≈ 1.6 µg/mL)	20 mm	> 625	> 1000 µg/mL	26.3%	–	–	–	–
O=C(O)c1cn(C2CC2)c2cc(N3CCNCC3)c(F)cc2c1=O [CIPROFLOXACIN]	18 mm	32 mm	21 mm	26 mm	21 mm	–	27 mm	–	–	–	–	–	–	–
O=C(c1ccccc1)N(/N=C/c1c[nH]nc1-c1cccc(Cl)c1)C(=O)c1ccncc1	–	–	–	13 mm	11 mm	116 µM (≈ 50 µg/mL)	–	–	–	–	inactive	inactive	inactive	inactive
O=C(c1ccccc1)N(/N=C/c1c[nH]nc1-c1ccc(Cl)cc1)C(=O)c1ccncc1	10 mm	–	12 mm	11 mm	9 mm	116 µM (≈ 50 µg/mL)	–	–	–	–	–	inactive	–	inactive
O=C(c1ccncc1)N(/N=C/c1c[nH]nc1-c1ccc(Cl)cc1)C(=O)c1ccccc1Cl	15 mm	19 mm	19 mm	18 mm	14 mm	53.8 µM (≈ 25 µg/mL)	16 mm	–	–	–	–	–	–	–
NC(=O)c1cnccn1 [PYRAZINAMIDE]	–	–	–	–	–	406 µM (≈ 50 µg/mL)	–	–	–	–	–	–	–	–
O=C(c1ccncc1)N(/N=C/c1c[nH]nc1-c1cccc(Cl)c1)C(=O)c1ccccc1Cl	12 mm	18 mm	16 mm	15 mm	13 mm	1.7 µM (≈ 0.789 µg/mL)	14 mm	642	513 µg/mL (≈ 1110 µM)	14.9%	–	–	–	–
COc1ccc(C(=O)N(/N=C/c2c[nH]nc2-c2cccc(Cl)c2)C(=O)c2ccncc2)cc1OC	–	–	–	10 mm	8 mm	102 µM (≈ 50 µg/mL)	–	–	–	–	inactive	inactive	inactive	inactive
COc1ccc(C(=O)N(/N=C/c2c[nH]nc2-c2ccc(Cl)cc2)C(=O)c2ccncc2)cc1	10 mm	9 mm	13 mm	12 mm	10 mm	109 µM (≈ 50 µg/mL)	7 mm	–	–	–	–	–	–	–
O=C(c1ccncc1)N(/N=C/c1c[nH]nc1-c1ccc(Cl)cc1)C(=O)c1ccc(F)cc1	14 mm	19 mm	17 mm	17 mm	14 mm	112 µM (≈ 50 µg/mL)	17 mm	–	–	–	–	–	–	–
O=C(c1ccncc1)N(/N=C/c1c[nH]nc1-c1ccc(Cl)cc1)C(=O)c1ccc(Cl)cc1	18 mm	24 mm	21 mm	24 mm	21 mm	53.8 µM (≈ 25 µg/mL)	19 mm	–	–	–	–	–	–	–
COc1ccc(C(=O)N(/N=C/c2c[nH]nc2-c2ccc(Cl)cc2)C(=O)c2ccncc2)cc1OC	9 mm	9 mm	11 mm	10 mm	8 mm	102 µM (≈ 50 µg/mL)	6 mm	–	–	–	–	–	–	–
COc1ccc(C(=O)N(/N=C/c2c[nH]nc2-c2cccc(Cl)c2)C(=O)c2ccncc2)cc1	11 mm	11 mm	14 mm	10 mm	7 mm	109 µM (≈ 50 µg/mL)	9 mm	–	–	–	–	–	–	–
O=C(N/N=C/c1c[nH]nc1-c1ccc(Cl)cc1)c1ccncc1	14 mm	16 mm	18 mm	19 mm	16 mm	38.4 µM (≈ 12.5 µg/mL)	14 mm	–	–	–	–	–	–	–
Cc1ccc(C(=O)N(/N=C/c2c[nH]nc2-c2cccc(Cl)c2)C(=O)c2ccncc2)cc1	8 mm	11 mm	10 mm	12 mm	10 mm	113 µM (≈ 50 µg/mL)	8 mm	–	–	–	–	–	–	–
O=C(c1ccncc1)N(/N=C/c1c[nH]nc1-c1ccc(Cl)cc1)C(=O)c1ccc(CCl)cc1	18 mm	19 mm	20 mm	16 mm	13 mm	13.1 µM (≈ 6.27 µg/mL)	15 mm	> 160	> 1000 µg/mL	12%	–	–	–	–
O=C(c1ccncc1)N(/N=C/c1c[nH]nc1-c1cccc(Cl)c1)C(=O)c1ccc(F)cc1	13 mm	14 mm	17 mm	16 mm	13 mm	3.6 µM (≈ 1.61 µg/mL)	12 mm	> 625	> 1000 µg/mL	17.8%	–	–	–	–
